Results published in paper PMC11859031, “Assessment of the In Vitro Biological Activities of Schiff Base-Synthesized Copper Oxide Nanoparticles as an Anti-Diabetic, Anti-Alzheimer, and Anti-Cancer Agent” (Pharmaceutics, 2025).
Converted amounts (≈) assume the structure as drawn.

Assays:
[1] = Iron reducing power (IRP); settings: samples at 100 µg/mL; mean ± SE, n = 3
Method: ammonium molybdate. Methanol (80%) was used in place of the sample for the blank. The tubes were sealed and incubated in a boiling water bath for 90 minutes.
After cooling to room temperature, the absorbance was measured at 695 nm against the blank. […] was used at the same concentrations as a standard. The antioxidant capacity was expressed as mg gallic acid equivalent per gram weight.
The iron reducing power was determined as µg/mL using the method proposed by Oyaizu (1986). In brief, 1ml of the tested sample (at each concentration) was combined with 1mL of 200mM sodium phosphate buffer (pH 6.6) and 1mL of 1% potassium ferricyanide. […] The absorbance was measured at 700nm against a blank prepared without the sample. […] A high absorbance at 700nm indicates a higher reducing power in the reaction mixture.
(§1) The 1,1-Diphenyl-2-picryl-hydrazyl (DPPH) radical scavenging activities were evaluated using the method described by Rahman et al. An antioxidant substance capable of donating a hydrogen atom to a solution containing DPPH- can reduce the stable free radical, causing the solution to change color from violet to pale yellow.
The remaining DPPH- radical was quantified by measuring the intensity of a light-purple colored DPPH methanol solution in the visible range at 518 nm using a spectroscopic method. […]

[2] = test system: caspase-3 in Caco-2 cells; assay: Caspase-3 ELISA in treated Caco-2 cells; format: cell-based, human; settings: Caco-2 cells treated at the IC50 value, mean ± SE, n = 3
Method: (§2) Following the treatment of HepG-2, Caco-2, A549, and BJ-1 cells with the SB-CuO-NPs at their respective IC50 values, as illustrated in Figure 9 and detailed in Table 5, an assessment of the activities of the caspase-3 and Bcl-2 enzymes was conducted in the treated cells. […] This mechanism ultimately triggers apoptosis. Additionally, the increased activity of caspase-3 results in a decrease in the expression of cyclin D1 and CDK-2 mRNA, thereby promoting the arrest of the G1 phase of the cell cycle. Othman et al. further noted that the biosynthesized M-NPs facilitate apoptosis by inhibiting the expression of the PI3K/AKT and Ras/Raf/ERK protein signaling pathways.
(§3) Invitrogen Corporation, following the manufacturer's instructions.

[3] = test system: human hepatocellular carcinoma (HepG-2) cell line; assay: MTT cytotoxicity, HepG-2
DPPH radical scavenging = settings: mean ± SE, n = 3
Method: as §1
The remaining DPPH- radical was quantified by measuring the intensity of a light-purple colored DPPH methanol solution in the visible range at 518 nm using a spectroscopic method. Two mill iliters of a DPPH solution (100 µ M) in ethanol were mixed with 2 mL of the sample (at each concentration). The reaction mixture for each concentration was thoroughly vortexed and then incubated in the dark at room temperature for 30 minutes. The absorbance was then measured spectrophotometrically at 518 nm against a blank (ethanol). For the control, 2 mL of ethanol was added instead of the sample and run simultaneously with the test.
Ascorbic acid was used at the same concentrations as a positive control. P ercent […]
inhibition of the DPPH free radical was calculated. […]

Bcl-2 in Caco-2 cells = assay: Bcl-2 ELISA in treated Caco-2 cells; format: cell-based, human; settings: Caco-2 cells treated at the IC50 value, mean ± SE, n = 3
Method: as §2, §3

COX-2 = molecular target: T1, COX-2 (Homo sapiens, UniProt P35354); assay: COX-2 inhibition assay (Cayman kit); format: biochemical; settings: mean ± SE, n = 3
T1 construct: purchased Cayman 560131
T1 sequence (P35354 18-604): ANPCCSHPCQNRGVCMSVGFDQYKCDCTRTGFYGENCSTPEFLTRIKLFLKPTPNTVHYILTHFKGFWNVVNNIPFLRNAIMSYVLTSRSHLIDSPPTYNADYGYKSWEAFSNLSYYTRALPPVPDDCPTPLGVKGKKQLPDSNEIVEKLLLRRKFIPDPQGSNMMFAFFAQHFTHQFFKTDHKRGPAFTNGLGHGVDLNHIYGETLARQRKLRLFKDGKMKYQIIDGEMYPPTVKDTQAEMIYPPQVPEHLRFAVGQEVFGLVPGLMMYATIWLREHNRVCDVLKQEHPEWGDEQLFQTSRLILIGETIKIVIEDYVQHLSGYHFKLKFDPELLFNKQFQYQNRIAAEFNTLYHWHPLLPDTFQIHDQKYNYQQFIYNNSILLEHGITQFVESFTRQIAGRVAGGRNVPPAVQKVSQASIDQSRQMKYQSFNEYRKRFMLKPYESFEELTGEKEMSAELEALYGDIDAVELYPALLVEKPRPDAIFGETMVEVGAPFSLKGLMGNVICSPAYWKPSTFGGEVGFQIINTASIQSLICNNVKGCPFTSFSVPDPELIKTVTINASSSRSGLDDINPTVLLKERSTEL

ABTS radical scavenging = settings: mean ± SE, n = 3
Method: The procedure for the 2,2'-azinobis-(3-ethylbenzothiazoline-6-sulfonic acid) (ABTS) […]
solution (7 mM) and potassium persulfate solution (2.4 mM). The working solution was prepared by mixing the two stock solutions in equal quantities and allowing them to react at room temperature in a dark place for 14 hours. The solution was then diluted by mixing 1 mL of ABTS solution with 60 mL of methanol to obtain an absorbance of 0.706 ± 0.01 units at 734 nm using a spectrophotometer. Fresh ABTS solution was prepared for each assay. The tested samples (at each concentration) were allowed to react with 1 mL of the ABTS solution, and the absorbance was taken at 734 nm after 7 minutes using a spectrophotometer. […]

NO radical scavenging = settings: mean ± SE, n = 3
Method: The in vitro biological applications of the SB and SB-CuO-NPs, including antioxidant, scavenging, anti-diabetic, anti-Alzheimer, anti-arthritic, anti-inflammatory, cytotoxic effects, and enzyme inhibition, were assessed using methods described in the literature (See Supplementary Materials).
During the current study, the free radical scavenging capacity of SB-CuO-NPs, SB, and ascorbic acid (positive control) was evaluated using the DPPH, ABTS, and NO radical methods. The scavenging activity is used to predict antioxidant efficacy, a mechanism in which antioxidants inhibit lipid oxidation. The lower IC50 value indicates a stronger ability of the SB-CuO-NPs to act as radical scavengers, whereas the higher IC50 value indicates a lower scavenging activity. […] The lower the IC50 value, the greater the antioxidant activity.

## Cc1nn(-c2ccccc2)c(Cl)c1C=NN=C1C(=O)Nc2ccccc21 [SB]
[1]
  Antioxidant activity IRP: 47.66 ± 0.19 µg/mL
[2]
  Caspase-3: 144.28 ± 0.22 pg/mL
[3]; HepG2
  viability at 31.13 µg/mL: 87.6%
  viability at 62.5 µg/mL: 74.6%
  viability at 125 µg/mL: 53.1%
  viability at 250 µg/mL: 40.2%
  viability at 500 µg/mL: 19.3%
[3]; HepG2, 48 h, read-out: Median Inhibitory Concentration (IC50) HepG-2
  IC50: 127 ± 3.13 µg/mL (≈ 350 µM)
DPPH radical scavenging; at 100 µg/mL
  Scavenging activity DPPH Inhib. (%): 44.54 ± 0.18%
DPPH radical scavenging
  Scavenging activity DPPH IC50: 6.24 ± 0.01 µg/mL
Bcl-2 in Caco-2 cells
  Bcl-2: 3.77 ± 0.05 ng/mL
COX-2; at 100 µg/mL, read-out: COX-2 Inhib. (%)
  inhibition at 100 µg/mL: 33.86 ± 0.18%
COX-2
  IC50: 19.7 µM
ABTS radical scavenging; at 100 µg/mL
  Scavenging activity ABTS Inhib. (%): 48.29 ± 0.18%
ABTS radical scavenging
  Scavenging activity ABTS IC50: 5.40 ± 0.06 µg/mL
NO radical scavenging; at 100 µg/mL
  Scavenging activity NO Inhib. (%): 36.79 ± 0.18%
NO radical scavenging
  Scavenging activity NO IC50: 7.69 ± 0.04 µg/mL
